Data: patent publication EP4104818A1, “OPHTHALMIC COMPOSITION COMPRISING XANTHOHUMOL” (Skeye Pharma GbR, priority 2021, dated 2022)

Key:
[1] = system: human corneal epithelial cells; test: cells; type: cell-based; conditions: Corneal epithelial cell, 24 h, read-out: cell viability
Experimental: Human corneal epithelial cells (hCEC; SCCE016; Merck Millipore, Burlington, MA, USA) were cultured in corneal epithelial cell growth medium with supplement mix (LGC Standards, Teddington, United Kingdom). Approximately 10,000 hCECs were seeded onto each well of a 96-well cell-culture dishes (NUNC, Langenselbold, Germany). Confluent cells were used for Water-soluble tetrazolium salt (WST-1) cell proliferation assays (Hoffmann-La Roche AG, Basel, Switzerland). After 24 hours of incubation with 100 µl of corneal epithelial cell growth medium without its supplement mix (LGC Standards, Teddington, United Kingdom), hCECs were treated with different concentrations of xanthohumol (XH; Selleckchem, Houston, TX, USA) dissolved in dimethyl sulfoxide (DMSO; Carl Roth AG, Karlsruhe, Germany). Control groups were treated with DMSO only. Following another 72 hours of incubation, the cells were incubated with the WST-1 solution for 30 minutes. Substrate turnover was measured with an ELISA reader at 450 nm (Spectramax 190; Molecular Devices, Sunnyvale, CA, USA) and a reference at 690 nm. To determine potential anti-oxidative effects of xanthohumol, hCECs were incubated and treated analogous to the above-mentioned WST-1 cell proliferation assay with minor modifications. […] Following another incubation of the hCECs for 24 hours, the WST-1 assay was further finalized according to the description above.

[2] = system: Intracellular, mitochondrial reactive oxygen species (ROS); test: Dihydrorhodamine-123 (DHR-123) assay of intracellular ROS; type: cell-based; conditions: Homo sapiens, HCEC, 2 hours
Experimental: Intracellular, mitochondrial reactive oxygen species (ROS) were assessed using the cell membrane permeable dihydrorhodamine-123 (DHR-123) assay (D23806; ThermoFisher Scientific, Waltham, MA, USA) according to the manufacturer's instructions. Measurements were made after exposing human corneal epithelial cells to H2O2, xanthohumol or DMSO only for 2 hours. For ROS staining, cells were incubated with 10 µM DHR-123 for 15 minutes. Nucleus staining was performed using Hoechst 33342 nucleic acid stain (H1399; ThermoFisher Scientific, Waltham, MA, USA). Randomly, a minimum of 3 images of every treatment group were acquired with a 20x fluorescence objective using the aforementioned Axio Observer 7. Results were expressed in percent of fluorescence intensity relative to the baseline measurement in the DMSO control group. For quantification of the fluorescence signals, the microscope software ZEN 3.0 (Carl Zeiss AG, Jena, Germany) was used.

[3] = system: Human corneal epithelial cells (hCEC); test: WST-1 cell viability assay; type: cell-based; conditions: 72 hours of incubation, hCECs, compared to the DMSO-treated control group
Experimental: Human corneal epithelial cells (hCEC; SCCE016; Merck Millipore, Burlington, MA, USA) were cultured in corneal epithelial cell growth medium with supplement mix (LGC Standards, Teddington, United Kingdom). Approximately 10,000 hCECs were seeded onto each well of a 96-well cell-culture dishes (NUNC, Langenselbold, Germany). Confluent cells were used for Water-soluble tetrazolium salt (WST-1) cell proliferation assays (Hoffmann-La Roche AG, Basel, Switzerland). After 24 hours of incubation with 100 µl of corneal epithelial cell growth medium without its supplement mix (LGC Standards, Teddington, United Kingdom), hCECs were treated with different concentrations of xanthohumol (XH; Selleckchem, Houston, TX, USA) dissolved in dimethyl sulfoxide (DMSO; Carl Roth AG, Karlsruhe, Germany). Control groups were treated with DMSO only. Following another 72 hours of incubation, the cells were incubated with the WST-1 solution for 30 minutes. Substrate turnover was measured with an ELISA reader at 450 nm (Spectramax 190; Molecular Devices, Sunnyvale, CA, USA) and a reference at 690 nm.

hCEC [4] = test: BrdU cell proliferation ELISA; type: cell-based; conditions: Homo sapiens, 24 hours, hCECs, no significant change
Experimental: Proliferation of hCEC was determined using a 5-bromo-2'-deoxyuridine (BrdU) ELISA in accordance with the manufacturers' recommendations (Merck KGaA, Darmstadt, Germany). In brief, approximately 7,000 cells were seeded onto a 96-well cell culture plat e and incubated for 24h to achieve complete adherence of the cells. After 24 hours of incubation with 100 µl of corneal epithelial cell growth medium without its' supplement mix, hCECs were treated with xanthohumol dissolved in DMSO. Following another 24 hours of incubation with BrdU labeling solution, cells were fixed and incubated with anti-BrdU antibodies according to the manufacturer's recommendations. BrdU incorporation into the DNA of hCECs was quantified by absorbance measurement at 450 nm.

hCEC [5] = test: Cell scratch assay (hCEC migration / wound healing in vitro); type: cell-based, Human
Experimental: To analyze hCEC migration in vitro, cells were cultured in corneal epithelial cell growth medium with supplement mix until confluence of the cells of a 6-well cell culture plate. Following an incubation period of 24 hours in cell culture medium without supplements, 5 linear scratches were performed in each well using a 200 µl pipette tip (Eppendorf AG, Hamburg, Germany). The hCECs were then incubated prospectively under treatment with xanthohumol or DMSO as a control for up to 72 hours. Reference images were acquired at the beginning of the incubation period using the phase contrast mode on an Axio Observer 7 (Carl Zeiss AG, Jena, Germany). Every 24 hours, follow-up images of 4-5 different scratch sections were acquired. The size of the wound area was analyzed using a semi-automated analysis tool in ImageJ 1.53a (National Institute of Health, Bethesda, MD, USA).

bovine corneas = test: Corneal erosion assay on bovine corneas ex vivo; conditions: up to 72 hours, every 12 hours, compared to the DMSO-treated control group
Experimental: Furthermore, corneal epithelial cell wound healing was determined on bovine corneas ex vivo. Bovine globes were obtained from a local butchery following approval by the authority for waste management of animal carcasses (ID: DE 09 162 0066-219) and processed within 12 hours post-mortem. The bovine globes were washed in 10% w/v povidone-iodine for 5 minutes. A circular corneal epithelial erosion was created using an 8 mm trephine and a hockey knife (Katena Products Inc., Parsippany, NJ, USA). Subsequently, a sclerocorneal ring was excised with eye scissors (Katena Products Inc., Parsippany, NJ, USA) and transferred to a 60 mm cell culture plate. To acquire reference images of the corneal erosion, the wound area was stained with a 0.8 mg/ml fluorescein sodium solution and illuminated with blue light (approximate wavelength 490 nm). Images were acquired using a distance-fixed digital single lens reflex camera equipped with a macro lens (Canon Inc., Tokyo, Japan). Consequently, the sclerocorneal rings were incubated in Dulbecco's Modified Eagle's Medium (Bio&SELL GmbH, Feucht, Germany) supplemented with 50 IU penicillin/ml and 50 µg streptomycin/ml (Merck Millipore, Burlington, MA, USA) and xanthohumol or DMSO only. Follow-up images were acquired every 12 hours, the cell culture medium was renewed daily.

SMILES	viability at 100 µM [1] [%]	activity at 100 µM ([2]; H2O2 100 µM only, compared to the control group, read-out: DHE-123 fluorescence) [%]	viability at 1 µM ([3]; 1 µM) [%]	viability at 2.5 µM ([3]; 2.5 µM) [%]	viability at 5 µM ([3]; 5 µM, not significant) [%]	viability at 1 µM [1] [%]	viability at 2.5 µM [1] [%]	activity at 1 µM ([2]; 1 µM xanthohumol with H2O2 100 µM, relative to the DMSO control group, read-out: DHR-123 fluorescence) [%]	activity at 2.5 µM ([2]; 2.5 µM xanthohumol with H2O2 100 µM, relative to the DMSO control group, read-out: DHR-123 fluorescence) [%]	activity at 1 µM (hCEC [4]; 1 µM) [%]	activity at 2.5 µM (hCEC [4]; 2.5 µM) [%]	activity at 5 µM (hCEC [4]; 5 µM) [%]	wound area (hCEC [5]; 1 µM, 72 hours of incubation, control group 73 ± 9%) [%]	wound area (hCEC [5]; 2.5 µM, 72 hours of incubation, control group 73 ± 9%) [%]	wound area (hCEC [5]; 2.5 µM, after 48 hours, control group 76 ± 7%) [%]	speed of re-epithelialization (bovine corneas; 1 µM)	speed of re-epithelialization (bovine corneas; 2.5 µM)
OO [H2O2, hydrogen peroxide, reference compound]	79 ± 14	149 ± 9															
COc1cc(O)c(CC=C(C)C)c(O)c1C(=O)/C=C/c1ccc(O)cc1 [xanthohumol, 1-[2,4-Dihydroxy-6-methoxy-3-(3-methyl-but-2-enyl)-phenyl]-3-(4-hydroxyphenyl)-propenon]			144 ± 26	127 ± 11	121 ± 24	91 ± 11	96 ± 4	97 ± 16	95 ± 26	112 ± 26	107 ± 16	95 ± 8	63 ± 14	58 ± 18	66 ± 11	did not show any significant difference	did not show any significant difference
